From publication PMC4401541, “Structure- and Ligand-Based Virtual Screening Identifies New Scaffolds for Inhibitors of the Oncoprotein MDM2” (PLoS ONE, 2015)
≈ marks a conversion by molar mass, not a printed value.

Experiments:
MDM2-N [1] = target: T1, MDM2-N (Homo sapiens, UniProt Q00987); experiment: Competitive capillary electrophoresis (CE) assay, compound vs fluorescently labelled p53 peptide (p53-F); type: binding; details: for inhibition at 300 µM: read-out: CE % inhibition at 300 μM; for activity in the assays: CE and FP screening assays
Experimental: Capillary electrophoresis (CE) is an analytical technique used to study the interaction between biomacromolecules. In CE, electrophoresis is carried out in the interior of a narrow capillary. The technique separates ions based on their electrophoretic mobility with the use of applied voltage. The electrophoretic mobility is dependent on the charge of the molecule, the viscosity and the molecular size. CE is performed using a high voltage to produce a high resolution profile with a short migration time to separate numerous analytes. […] The assay provides a high sensitivity through the use of a Laser Induced Fluorescence (LIF) detector to enable the detection of weak binding fragments. This enables the interaction assay to be performed with a low labelled probe concentration and allows compounds to be screened at low concentrations. A competitive CE assay was used to detect competition between compounds and fluorescently labelled p53 peptide (p53-F) in MDM2-N/p53 binding site. The injection sample contained carboxyfluorescein (internal standard (10pM)) and p53-F (500pM) in TAPS/Tris (1mM) pH 8.0, DTT (1mM). […] After injection of the sample, a voltage of 10kV was applied and separation was carried out for 6.5min.
TR is the migration time of p53-F peak.
TL is the migration time of p53-F peak in the presence of MDM2-N + compound.

MDM2-N [2] = target: T1, MDM2-N; experiment: Fluorescence polarization (FP) competition assay with p53-F; type: binding; details: read-out: FP % inhibition at 700 μM; compound 700 μM; MDM2-N 500 nM; p53-F 2 nM
Experimental: Fluorescence polarization experiments were performed with a LJL Biosystems Analyst multi-plate reader in 50mM HEPES pH 7.5, 100mM NaCl, 1mM DTT. Fluorescein labelled p53 peptide (p53-F) was synthesised by Biomatiks. […] The competition experiments were carried out by mixing MDM2-N (500nM), p53-F (2nM) and test compound in black NBS plate. […] The inhibition (%) was calculated using the equation below. %Inhibition=100(AF-AL)/(AF-AU) Where: AF is the anisotropy of fully bound p53-F.
AU is the anisotropy of unbound p53-F.
AL is the anisotropy of p53-F in the presence of MDM2-N + compound.

[3] = Solubility of the fragments in assay buffer; type: physicochemical; details: aqueous buffer, read-out: Estimated solubility limit
Description: Supplement pone.0121424.s006.docx, table 5 | column: Estimated solubility limit

MDM2 = details: read-out: literature IC50 value for racemic Nutlin-3; cited from earlier work

Compound `O=C(NCc1ccccc1)N(c1ccccc1)c1ccccc1` [Compound 19] has an inhibition at 300 µM (MDM2-N [1]) of 42% and an inhibition at 700 µM (MDM2-N [2]) of 18%.
For `CCn1c(=O)c2c(nc(-n3nc(C)cc3C)n2Cc2ccc(F)cc2)n(C)c1=O` [Compound 25], the “activity in the assays” value (MDM2-N [1]) was “inactive”.
With `CC1CCN(c2nc3c(c(=O)n(C)c(=O)n3C)n2CC(=O)c2ccccc2)CC1` [Compound 26] the “activity in the assays” value (MDM2-N [1]) was “inactive”.
`O=C1N[C@@](O)(c2ccccc2)c2ccccc21` [Compound 39] gave an inhibition at 300 µM (MDM2-N [1]) of 40% and an inhibition at 700 µM (MDM2-N [2]) of 13%.
With `O=C1Cc2ccccc2N1` [Compound 40] the inhibition at 300 µM (MDM2-N [1]) was 28%, the inhibition at 700 µM (MDM2-N [2]) was 8% and the solubility [3] was > 2000 µM.
`Oc1cccc(Nc2ccccc2)c1` [Compound 41] gave an inhibition at 300 µM (MDM2-N [1]) of 66%, an inhibition at 700 µM (MDM2-N [2]) of 31% and a solubility [3] of 250 to 500 µM (≈ 46.3 to 92.6 µg/mL).
`Oc1ccc(Nc2ccccc2)cc1` [Compound 42] showed an inhibition at 300 µM (MDM2-N [1]) of 52%, an inhibition at 700 µM (MDM2-N [2]) of 60% and a solubility [3] of 250 to 500 µM (≈ 46.3 to 92.6 µg/mL).
For `c1ccc(Nc2ccccc2)cc1` [Compound 43], the inhibition at 300 µM (MDM2-N [1]) was 36%, the inhibition at 700 µM (MDM2-N [2]) was 33% and the solubility [3] was 250 to 500 µM (≈ 42.3 to 84.6 µg/mL).
`Nc1ccc(Nc2ccccc2)cc1` [Compound 44] showed an inhibition at 300 µM (MDM2-N [1]) of 30%, an inhibition at 700 µM (MDM2-N [2]) of 8% and a solubility [3] of 62.5 to 125 µM (≈ 11.5 to 23 µg/mL).
With `O=C(O)c1ccccc1Nc1ccccc1` [Compound 45] the solubility [3] was > 1000 µM.
